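These data come from cells grown in 96-well plates and exposed to compound for 48 hours at five concentrations. Abbreviation: GI50, concentration required for 50% inhibition of growth.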 Active and inactive are the calls of the source. Cut-off read from the data, not from the text of the source: active = GI50 up to about 1.1 µM and inactive = higher.
Columns and labels:
Assay in all cases: NCI anticancer screen, dose series, 48 h
NCI/ADR-RES = test system: NCI/ADR-RES
HCT-15 = test system: HCT-15
SF-539 = test system: SF-539
SR = test system: SR
Malme-3M = test system: Malme-3M
A549 = test system: A549
MDA-MB-231 = test system: MDA-MB-231
SNB-75 = test system: SNB-75
CAKI-1 = test system: CAKI-1
COLO 205 = test system: COLO 205
A498 = test system: A498
SNB-19 = test system: SNB-19
UACC-62 = test system: UACC-62
UO-31 = test system: UO-31
EKVX = test system: EKVX
SF-295 = test system: SF-295
OVCAR-4 = test system: OVCAR-4
T47D = test system: T47D
NCI-H226 = test system: NCI-H226
SF-268 = test system: SF-268

Row | Compound | GI50 (NCI/ADR-RES) | GI50 (HCT-15) [µM] | GI50 (SF-539) | GI50 (SR) | GI50 (Malme-3M) | GI50 (A549) | GI50 (MDA-MB-231) | GI50 (SNB-75) | GI50 (CAKI-1) | GI50 (COLO 205) | GI50 (A498) | GI50 (SNB-19) | GI50 (UACC-62) | GI50 (UO-31) | GI50 (EKVX) | GI50 (SF-295) | GI50 (OVCAR-4) | GI50 (T47D) | GI50 (NCI-H226) | GI50 (SF-268)
1 | O=[N+]([O-])c1ccc(/C(=C\c2ccccc2)Cn2ccnc2)cc1 | 21.1 µM (inactive) | 30.2 | 43.4 µM (inactive) | 38.1 µM (inactive) | 85.5 µM (inactive) | 39.3 µM (inactive) | 13.1 µM (inactive) | 27.4 µM (inactive) | 3.77 µM (inactive) | 15 µM (inactive) | 20.9 µM (inactive) | 57.9 µM (inactive) | 33.5 µM (inactive) | 13.6 µM (inactive) | 43.9 µM (inactive) | 32.7 µM (inactive) | 40.5 µM (inactive) | 34.8 µM (inactive) | 32.4 µM (inactive) | 
2 | Cn1c(=O)cc(NNc2ccc(Cl)c(Cl)c2)[nH]c1=O | 13.3 µM (inactive) | 3.75 | 15.1 µM (inactive) | > 100 µM (inactive) | > 10 µM (inactive) | 16.2 µM (inactive) | 10.8 µM (inactive) | 23 µM (inactive) | 14.1 µM (inactive) | 18.9 µM (inactive) | 36.8 µM (inactive) | 32.1 µM (inactive) | 1.71 µM (inactive) | 12.1 µM (inactive) | 10 µM (inactive) | 15.3 µM (inactive) | 10.7 µM (inactive) | 4.99 µM (inactive) | 19.5 µM (inactive) | 27.9 µM (inactive)
3 | O=C(Nc1ccccc1)N(C1=NCC(CI)S1)c1ccc(F)cc1F (stereo unspecified) | > 100 µM (inactive) | 25 | 59.3 µM (inactive) | 12.2 µM (inactive) | > 100 µM (inactive) | > 100 µM (inactive) | 20.2 µM (inactive) | > 100 µM (inactive) | 25.4 µM (inactive) | 46 µM (inactive) |  | > 100 µM (inactive) | 25.6 µM (inactive) | > 100 µM (inactive) | > 100 µM (inactive) | > 100 µM (inactive) | 43.6 µM (inactive) | 15.3 µM (inactive) | 87.3 µM (inactive) | > 100 µM (inactive)
4 | Nc1nc(-c2ccccc2)cc(-c2ccc(F)cc2)c1-c1ccc(Cl)cc1 | > 100 µM (inactive) | > 100 |  | 22.2 µM (inactive) | > 100 µM (inactive) | > 100 µM (inactive) | > 100 µM (inactive) | > 100 µM (inactive) | > 100 µM (inactive) | > 100 µM (inactive) |  | > 100 µM (inactive) | > 100 µM (inactive) | > 100 µM (inactive) | > 100 µM (inactive) | 41.6 µM (inactive) | 88.9 µM (inactive) | > 100 µM (inactive) | > 100 µM (inactive) | > 100 µM (inactive)
5 | COc1ccc([C@]23CCN(S(=O)(=O)c4ccc(C)cc4)[C@H]2[C@H](CO)C2(CC3)OCC(C)(C)CO2)cc1OC | > 100 µM (inactive) | > 100 |  | > 100 µM (inactive) | > 100 µM (inactive) | > 100 µM (inactive) | > 100 µM (inactive) | > 100 µM (inactive) | > 100 µM (inactive) | > 100 µM (inactive) | > 100 µM (inactive) | > 100 µM (inactive) | > 100 µM (inactive) | > 100 µM (inactive) | > 100 µM (inactive) | > 100 µM (inactive) | > 100 µM (inactive) | > 100 µM (inactive) | > 100 µM (inactive) | 
6 | COc1ccc(N2C=Nn3c(nc4sc(C)c(C)c4c3=O)C2)cc1 | > 100 µM (inactive) | > 100 |  | > 100 µM (inactive) | > 100 µM (inactive) | > 100 µM (inactive) | > 100 µM (inactive) | > 100 µM (inactive) | > 100 µM (inactive) | > 100 µM (inactive) | 29.4 µM (inactive) | > 100 µM (inactive) | > 100 µM (inactive) | > 100 µM (inactive) | > 100 µM (inactive) | > 100 µM (inactive) | > 100 µM (inactive) | > 100 µM (inactive) | > 100 µM (inactive) | > 100 µM (inactive)
7 | CCOP(=O)(OCC)/C(C#N)=C/c1ccccn1 | > 100 µM (inactive) | > 100 | > 100 µM (inactive) | > 100 µM (inactive) | > 100 µM (inactive) | > 100 µM (inactive) | > 100 µM (inactive) | > 100 µM (inactive) | > 100 µM (inactive) | > 100 µM (inactive) | > 100 µM (inactive) | > 100 µM (inactive) | > 100 µM (inactive) |  | > 100 µM (inactive) | > 100 µM (inactive) | > 100 µM (inactive) | > 100 µM (inactive) | > 100 µM (inactive) | > 100 µM (inactive)
8 | NNC1=Nc2ccc(Cl)cc2C(=S)N2CSCC12 (stereo unspecified) | > 100 µM (inactive) | > 100 |  | > 100 µM (inactive) | > 100 µM (inactive) | > 100 µM (inactive) | > 100 µM (inactive) | > 100 µM (inactive) | > 100 µM (inactive) | > 100 µM (inactive) | > 100 µM (inactive) | > 100 µM (inactive) | > 100 µM (inactive) | > 100 µM (inactive) | > 100 µM (inactive) | > 100 µM (inactive) | > 100 µM (inactive) | > 100 µM (inactive) | > 100 µM (inactive) | > 100 µM (inactive)
9 | Nc1ccc2nc3n(c2c1)C(c1c(F)cccc1F)SC3 (stereo unspecified) | > 100 µM (inactive) | > 100 | > 100 µM (inactive) | > 100 µM (inactive) | > 100 µM (inactive) | > 100 µM (inactive) | > 100 µM (inactive) | 80.4 µM (inactive) | > 100 µM (inactive) | > 100 µM (inactive) | > 100 µM (inactive) | > 100 µM (inactive) | > 100 µM (inactive) | 72.6 µM (inactive) | > 100 µM (inactive) | 98.9 µM (inactive) | > 100 µM (inactive) | > 100 µM (inactive) |  | > 100 µM (inactive)
10 | COC(=O)[C@@H](NC1(c2ccccc2)c2ccccc2-c2ccccc21)[C@H](OC(=O)[C@H]1CCCN1S(=O)(=O)c1ccccc1)C(=O)OC | > 100 µM (inactive) | > 100 | > 100 µM (inactive) | > 100 µM (inactive) | > 100 µM (inactive) | > 100 µM (inactive) | > 100 µM (inactive) | 63.2 µM (inactive) |  | > 100 µM (inactive) | > 100 µM (inactive) | > 100 µM (inactive) | > 100 µM (inactive) | > 100 µM (inactive) | 99.5 µM (inactive) | > 100 µM (inactive) | > 100 µM (inactive) | > 100 µM (inactive) | > 100 µM (inactive) | > 100 µM (inactive)
11 | COC1=CC(=O)C(C2(OC(C)C)OC(=O)C(Cl)=C2Cl)=CC1=O (stereo unspecified) | > 100 µM (inactive) | > 100 | > 100 µM (inactive) | 0.0115 µM (active) | > 100 µM (inactive) | > 100 µM (inactive) | > 100 µM (inactive) | > 100 µM (inactive) | > 100 µM (inactive) | > 100 µM (inactive) | > 100 µM (inactive) | > 100 µM (inactive) | > 100 µM (inactive) | 74.5 µM (inactive) | > 100 µM (inactive) | > 100 µM (inactive) |  | > 100 µM (inactive) | > 100 µM (inactive) | > 100 µM (inactive)
12 | Cn1cc(NC(=O)Nc2cc(C(=O)Nc3cc(C(=O)Nc4ccc5cc(S(=O)(=O)O)cc(S(=O)(=O)O)c5c4)n(C)c3)n(C)c2)cc1C(=O)Nc1cc(C(=O)Nc2ccc3cc(S(=O)(=O)O)cc(S(=O)(=O)O)c3c2)n(C)c1 | > 100 µM (inactive) | > 100 | > 100 µM (inactive) | > 100 µM (inactive) | > 100 µM (inactive) | 84.9 µM (inactive) | > 100 µM (inactive) | 82 µM (inactive) |  | > 100 µM (inactive) |  | > 100 µM (inactive) | > 100 µM (inactive) | > 100 µM (inactive) | 38.5 µM (inactive) | > 100 µM (inactive) | > 100 µM (inactive) | > 100 µM (inactive) | > 100 µM (inactive) | > 100 µM (inactive)
13 | OCCCN(CCc1ccc(Cl)c(Cl)c1)CCN1CCCC1 | 81.5 µM (inactive) | 39.5 |  | 31.8 µM (inactive) | 23.9 µM (inactive) | 58.2 µM (inactive) | 32.5 µM (inactive) | 33 µM (inactive) | > 100 µM (inactive) |  | 17.3 µM (inactive) | 68.4 µM (inactive) | 16.9 µM (inactive) | 50.2 µM (inactive) | > 100 µM (inactive) | 34 µM (inactive) | > 100 µM (inactive) | 33.1 µM (inactive) |  | 48 µM (inactive)
14 | CS(=O)(=O)c1ccc(C(=O)O[C@@H]2C(=O)N3CC[C@H]4OC(O)[C@@H]2[C@H]43)cc1 (stereo partly specified) | > 100 µM (inactive) | > 100 | > 100 µM (inactive) | > 100 µM (inactive) |  | > 100 µM (inactive) | > 100 µM (inactive) | 58.1 µM (inactive) | > 100 µM (inactive) | > 100 µM (inactive) | > 100 µM (inactive) | > 100 µM (inactive) | > 100 µM (inactive) | > 100 µM (inactive) | > 100 µM (inactive) | > 100 µM (inactive) | > 100 µM (inactive) | > 100 µM (inactive) | > 100 µM (inactive) | > 100 µM (inactive)
15 | CN(C)Cc1cc(/N=N/c2ccccc2)ccc1O | 24.8 µM (inactive) | 43.1 | 67.3 µM (inactive) | 59.2 µM (inactive) | 47.3 µM (inactive) | 92.9 µM (inactive) | 32.9 µM (inactive) | 10 µM (inactive) | 62.4 µM (inactive) | 53 µM (inactive) | 25.1 µM (inactive) | > 100 µM (inactive) | 24.5 µM (inactive) | 21.9 µM (inactive) | 40 µM (inactive) | > 100 µM (inactive) |  | 44.1 µM (inactive) | 95.9 µM (inactive) | 38.8 µM (inactive)

Source: ChEMBL document CHEMBL1201862, “PubChem BioAssay data set” (2004)
